For 16 compounds, IC50 results are on record in US20140113898A1, “BISARYLSULFONE AND DIALKYLARYLSULFONE COMPOUNDS AS CALCIUM CHANNEL BLOCKERS” (Zalicus Pharmaceuticals Ltd., priority 2010, published 2014).

Each structure is given as a SMILES string. Read-outs that look alike come from different tables or passages of the source.

Common to all, as to format: cell-based
One assay concerns the target T1, CaV3.1 (Homo sapiens, UniProt O43497).
T1 construct: expressed in transfected cells; host or cells: unnamed doxycycline-inducible cell line
As to the kind of experiment: High-throughput CaV3.1 T-type FLIPR fluorescent assay. The following applies: Fluo-4 FLIPR. How it is done:
Cells were plated in 384-well, clear-bottom, black-walled, poly-D-lysine coated plates (Becton Dickinson, Franklin Lake, N.J.) 2 days prior to use in the FLIPR assay. 100 μL of cells (2.0×10^6 cell/mL) containing doxycyline (Sigma-Aldrich, 1.5 μg/mL; to induce channel expression) were added to each well using a Multidrop (Thermo Scientific, Waltham, Mass.) and were maintained in 5% CO2 incubator at 37° C. On the morning of the assay, cells were transferred to a 5% CO2 incubator at 29° C.
Cells were washed with a wash buffer containing (in mM): 118 NaCl, 18.4 HEPES, 11.7 D-glucose, 0.05 CaCl2, 0.5 MgSO4, 1 KCl, and 1.2 KH2PO4, with the pH adjusted to 7.2 with NaOH. 4.4 μM of the fluorescent indicator dye, Fluo-4 (Invitrogen), prepared in pluronic acid
(Sigma-Aldrich), was loaded into the wells and incubated for 45 minutes at 29° C. in 5% CO2. Cells were then rinsed with the following low Ca^2+ buffer (in mM): 0.34 Na2HPO4, 4.2 NaHCO3, 0.44 KH2PO4, 0.41 MgSO4, 0.49 MgCl2-6H2O, 20 HEPES, 5.5 D-Glucose, 137 NaCl, 5.3 KCl, and 0.001 CaCl2, with 0.1% BSA and the pH adjusted to 7.2 with NaOH. Concentration-dependent response curves were generated from 5 mM stock solutions prepared in DMSO (Sigma-Aldrich) and diluted in the buffer containing low Ca^2+ and incubated for 20 minutes at 29° C. in 5% CO2. Calcium entry was evoked with an addition of (in mM): 0.34 Na2HPO4, 4.2 NaHCO3, 0.44 KH2PO4, 0.41 MgSO4, 0.49 MgCl2-6H2O, 20 HEPES, 5.5 D-Glucose, 137 NaCl, 5.3 KCl, and 6 CaCl2, with 0.1% BSA and the pH adjusted to 7.2 with NaOH. A change in the Fluo-4 fluorescence signal was assessed using FLIPR^TETRA™ instrument (Molecular Devices, Sunnyvale, Calif.) for 3 minutes following the elevation of extracellular KCl using an illumination wavelength of 470-495 nm with emissions recorded at 515-575 nm.
(§1) Concentration-dependent response curves were obtained by comparing the fluorescence signal in the presence of compound and fitted with a logistic function (1) to obtain the concentration that inhibited 50% (IC50) of the RLU signal using OriginPro v.7.5 software (OriginLab, Northampton, Mass.).
(§2) To assess the quality of the FLIPR assays the Z-factor (2) was used to quantify the suitability of the assay conditions using the following equation: […]
(§3) Data are expressed as mean and standard deviation (SD).

In the next assay the target is T2, CaV2.2 (Homo sapiens, UniProt Q00975).
T2 construct: expressed in transfected cells; host or cells: unnamed doxycycline-inducible cell line
T2 sequence (Q00975 whole entry): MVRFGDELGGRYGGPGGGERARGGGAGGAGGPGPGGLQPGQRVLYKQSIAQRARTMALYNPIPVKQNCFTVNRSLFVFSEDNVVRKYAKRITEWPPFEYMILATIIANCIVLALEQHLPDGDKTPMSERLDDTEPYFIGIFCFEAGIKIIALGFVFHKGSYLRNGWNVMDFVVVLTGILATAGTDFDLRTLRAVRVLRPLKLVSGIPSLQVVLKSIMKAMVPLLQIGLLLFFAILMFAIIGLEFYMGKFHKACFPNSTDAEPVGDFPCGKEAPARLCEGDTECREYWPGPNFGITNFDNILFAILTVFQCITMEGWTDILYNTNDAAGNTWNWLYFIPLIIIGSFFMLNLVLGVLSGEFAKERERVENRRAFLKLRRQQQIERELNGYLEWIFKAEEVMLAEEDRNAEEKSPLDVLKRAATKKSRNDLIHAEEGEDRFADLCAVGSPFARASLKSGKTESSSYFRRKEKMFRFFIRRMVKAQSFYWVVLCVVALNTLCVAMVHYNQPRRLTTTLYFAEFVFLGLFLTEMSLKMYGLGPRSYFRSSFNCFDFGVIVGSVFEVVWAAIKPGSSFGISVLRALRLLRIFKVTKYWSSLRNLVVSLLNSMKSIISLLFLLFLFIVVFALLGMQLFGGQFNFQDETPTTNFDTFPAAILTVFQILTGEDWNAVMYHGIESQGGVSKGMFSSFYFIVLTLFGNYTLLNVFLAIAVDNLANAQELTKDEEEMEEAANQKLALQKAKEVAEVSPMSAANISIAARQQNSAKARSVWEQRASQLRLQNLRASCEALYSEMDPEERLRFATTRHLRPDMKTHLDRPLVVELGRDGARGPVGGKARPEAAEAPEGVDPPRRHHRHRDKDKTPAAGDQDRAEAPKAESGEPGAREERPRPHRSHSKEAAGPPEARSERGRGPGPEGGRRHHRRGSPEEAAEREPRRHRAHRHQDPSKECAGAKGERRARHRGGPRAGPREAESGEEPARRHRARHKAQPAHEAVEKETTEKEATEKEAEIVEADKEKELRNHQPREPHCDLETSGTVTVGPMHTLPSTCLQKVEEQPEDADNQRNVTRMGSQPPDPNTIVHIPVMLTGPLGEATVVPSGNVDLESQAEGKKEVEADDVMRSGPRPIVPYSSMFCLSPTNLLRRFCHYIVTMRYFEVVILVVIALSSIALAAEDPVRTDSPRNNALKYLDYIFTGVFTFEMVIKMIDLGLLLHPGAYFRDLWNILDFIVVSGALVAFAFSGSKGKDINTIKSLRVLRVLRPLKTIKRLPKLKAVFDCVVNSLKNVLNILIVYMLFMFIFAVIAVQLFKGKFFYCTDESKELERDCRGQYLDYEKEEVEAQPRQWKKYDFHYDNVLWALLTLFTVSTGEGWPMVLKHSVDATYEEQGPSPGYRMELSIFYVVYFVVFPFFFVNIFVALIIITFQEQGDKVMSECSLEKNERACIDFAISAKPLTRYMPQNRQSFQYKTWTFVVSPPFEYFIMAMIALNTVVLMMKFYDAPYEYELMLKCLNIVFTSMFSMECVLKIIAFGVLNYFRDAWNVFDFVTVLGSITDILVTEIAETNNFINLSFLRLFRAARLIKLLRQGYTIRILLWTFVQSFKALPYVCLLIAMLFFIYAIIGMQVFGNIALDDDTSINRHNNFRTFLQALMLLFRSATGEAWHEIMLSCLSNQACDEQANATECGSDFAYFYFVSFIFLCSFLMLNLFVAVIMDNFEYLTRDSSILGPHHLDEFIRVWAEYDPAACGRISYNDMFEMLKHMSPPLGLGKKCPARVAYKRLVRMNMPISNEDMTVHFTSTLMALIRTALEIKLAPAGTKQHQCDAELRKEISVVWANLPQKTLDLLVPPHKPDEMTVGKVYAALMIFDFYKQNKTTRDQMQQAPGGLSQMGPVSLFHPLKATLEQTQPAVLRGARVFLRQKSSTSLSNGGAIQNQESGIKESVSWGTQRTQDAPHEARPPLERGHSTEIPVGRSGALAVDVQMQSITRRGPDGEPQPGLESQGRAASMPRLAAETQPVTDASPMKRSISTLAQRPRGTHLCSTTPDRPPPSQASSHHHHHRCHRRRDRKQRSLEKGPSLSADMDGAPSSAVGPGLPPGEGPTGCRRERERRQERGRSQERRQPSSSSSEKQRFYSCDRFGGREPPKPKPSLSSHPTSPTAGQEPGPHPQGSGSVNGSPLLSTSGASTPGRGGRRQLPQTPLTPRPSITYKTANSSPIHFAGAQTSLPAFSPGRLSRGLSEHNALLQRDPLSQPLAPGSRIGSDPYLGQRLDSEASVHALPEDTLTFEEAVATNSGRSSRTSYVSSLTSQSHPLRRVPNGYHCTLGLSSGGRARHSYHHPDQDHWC
T2 sequence (P54284 whole entry partner): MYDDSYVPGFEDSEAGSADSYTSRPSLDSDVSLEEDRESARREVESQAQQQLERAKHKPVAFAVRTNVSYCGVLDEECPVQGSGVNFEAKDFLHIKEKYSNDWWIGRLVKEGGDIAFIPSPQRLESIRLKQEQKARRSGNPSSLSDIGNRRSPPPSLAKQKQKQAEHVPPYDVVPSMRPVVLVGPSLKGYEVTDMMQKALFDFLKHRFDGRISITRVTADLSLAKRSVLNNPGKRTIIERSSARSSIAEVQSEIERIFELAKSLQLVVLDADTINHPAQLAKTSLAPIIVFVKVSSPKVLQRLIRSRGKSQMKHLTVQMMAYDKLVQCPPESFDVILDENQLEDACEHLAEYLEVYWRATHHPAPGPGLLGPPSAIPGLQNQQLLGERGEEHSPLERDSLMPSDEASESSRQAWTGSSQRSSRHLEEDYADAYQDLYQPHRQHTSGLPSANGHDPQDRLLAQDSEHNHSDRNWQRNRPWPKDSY
T2 sequence (P54289 25-946 partner limits assumed): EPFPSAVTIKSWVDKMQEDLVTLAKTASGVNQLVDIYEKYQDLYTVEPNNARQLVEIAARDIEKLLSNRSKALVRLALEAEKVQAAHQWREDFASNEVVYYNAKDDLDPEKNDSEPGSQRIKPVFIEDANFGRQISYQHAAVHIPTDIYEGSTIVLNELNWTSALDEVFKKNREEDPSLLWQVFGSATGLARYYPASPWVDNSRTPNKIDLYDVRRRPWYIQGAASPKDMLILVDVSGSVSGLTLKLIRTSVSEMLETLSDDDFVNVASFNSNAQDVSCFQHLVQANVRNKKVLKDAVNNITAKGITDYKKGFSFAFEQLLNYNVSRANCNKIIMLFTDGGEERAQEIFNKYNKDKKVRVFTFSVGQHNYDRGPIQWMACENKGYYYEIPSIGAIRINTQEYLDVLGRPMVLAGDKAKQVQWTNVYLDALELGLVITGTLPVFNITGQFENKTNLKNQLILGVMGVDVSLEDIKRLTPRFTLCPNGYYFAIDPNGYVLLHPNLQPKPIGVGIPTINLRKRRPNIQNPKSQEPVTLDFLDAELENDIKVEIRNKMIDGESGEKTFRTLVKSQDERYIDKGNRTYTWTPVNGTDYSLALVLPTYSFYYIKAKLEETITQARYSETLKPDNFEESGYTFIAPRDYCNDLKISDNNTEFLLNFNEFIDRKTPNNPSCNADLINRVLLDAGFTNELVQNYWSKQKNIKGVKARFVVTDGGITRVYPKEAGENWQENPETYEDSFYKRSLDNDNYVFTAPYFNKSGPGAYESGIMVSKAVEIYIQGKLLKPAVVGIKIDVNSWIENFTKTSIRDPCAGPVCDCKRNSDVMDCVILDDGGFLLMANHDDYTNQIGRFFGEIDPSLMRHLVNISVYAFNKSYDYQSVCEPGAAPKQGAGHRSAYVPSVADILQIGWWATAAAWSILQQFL
T2 sequence (P54289 947-1103 partner limits assumed): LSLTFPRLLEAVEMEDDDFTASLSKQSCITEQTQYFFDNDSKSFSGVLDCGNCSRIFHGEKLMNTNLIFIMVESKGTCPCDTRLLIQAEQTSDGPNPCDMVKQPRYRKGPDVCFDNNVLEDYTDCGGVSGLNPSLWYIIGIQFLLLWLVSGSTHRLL
As to the kind of experiment: High-throughput CaV2.2/Kir2.3 FLIPR fluorescent assay. The following applies: Fluo-4 FLIPR, closed or inactivated state not stated, read-out: FLIPR data CaV2.2. Put shortly:
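IC50 was derived by logistic fitting of the FLIPR Fluo-4 signal recorded over 3 min after a 130 mM KCl stimulus. Before stimulation, cells (channel expression induced with doxycycline, 29 °C on assay day) were kept in pH 7.4 buffer with 2 mM KCl for the closed-state format or 12.5 mM KCl for the inactivated-state format.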

Another assay concerns the target T3, CaV3.2 (Homo sapiens, UniProt O95180).
T3 construct: expressed in transfected cells; host or cells: unnamed doxycycline-inducible cell line
As to the kind of experiment: High-throughput CaV3.2/Kir2.3 T-type FLIPR fluorescent assay. To be noted: Fluo-4 FLIPR, closed or inactivated state not stated. Here is the method:
Cells were plated in 384-well, clear-bottom, black-walled, poly-D-lysine coated plates (Becton Dickinson, Franklin Lake, N.J.) 2 days prior to use in the FLIPR assay. 100 µL of cells (1.2×10^6 cell/mL) containing doxycyline (Sigma-Aldrich, 1.5 μg/mL; to induce channel expression) were added to each well using a Multidrop (Thermo Scientific, Waltham, Mass.) and were maintained in 5% CO2 incubator at 37° C. On the morning of the assay, cells were transferred to a 5% CO2 incubator at 29° C.
Cells were washed with a wash buffer containing (in mM): 118 NaCl, 18.4 HEPES, 11.7 D-glucose, 2 CaCl2, 0.5 MgSO4, 4.7 KCl, and 1.2 KH2PO4, with the pH adjusted to 7.2 with
NaOH. 4.4 μM of the fluorescent indicator dye Fluo-4 (Invitrogen) prepared in pluronic acid (Sigma-Aldrich) was loaded into the wells and incubated for 45 minutes at 29° C. in 5% CO2. Cells were then rinsed with either a 2 mM KCl closed-state buffer (in mM: 138.5 NaCl, 10 HEPES, 10 D-glucose, 1 CaCl2, and 2 KCl, with the pH adjusted to 7.4 with NaOH) when performing the closed-state assay or 7.6 mM KCl inactivated-state buffer (in mM: 130.9 NaCl, 10 HEPES, 10 D-glucose, 1 CaCl2, and 7.6 mM KCl, with the pH adjusted to 7.4 with NaOH) when performing the inactivated-state assay. Concentration-dependent response curves were generated from 5 mM stock solutions prepared in DMSO (Sigma-Aldrich), diluted in either the 2 mM KCl buffer or 7.6 mM KCl buffer, and incubated for 20 minutes at 29° C. in 5% CO2. Calcium entry was evoked with an addition of either 12 mM KCl stimulation buffer (in mM: 128.5 NaCl, 10 HEPES, 10 D-glucose, 1 CaCl2, and 12 KCl, with the pH adjusted to 7.4 with NaOH) or 14.5 mM KCl stimulation buffer (in mM: 126 NaCl, 10 HEPES, 10 D-glucose, 1 CaCl2, and 14.5 KCl, with the pH adjusted to 7.4 with NaOH) for the closed-state or inactivated-state assay respectively. A change in the Fluo-4 fluorescence signal was assessed using FLIPR^TETRA™ instrument (Molecular Devices, Sunnyvale, Calif.) for 3 minutes following the elevation of extracellular KCl using an illumination wavelength of 470-495 nm with emissions recorded at 515-575 nm.
as §1, §2, §3

`O=C(NCc1ccc(S(=O)(=O)c2cccc(C(F)(F)F)c2)cc1)c1ccc(Cl)c(F)c1` [Compound 1, 4-chloro-3-fluoro-N-(4-((3-(trifluoromethyl)phenyl)sulfonyl)benzyl)benzamide]: the results for the IC50 at CaV3.1 (Table 4), on CaV2.2 (Table 4) and at CaV3.2 (Table 4) were 1290 nM, 760 nM and 620 nM, respectively.
For the compound `O=C(NCc1ccc(S(=O)(=O)c2cccc(C(F)(F)F)c2)cc1)c1cc(F)cc(Cl)c1` [Compound 2, 3-chloro-5-fluoro-N-(4-((3-(trifluoromethyl)phenyl)sulfonyl)benzyl)benzamide], the figures for the IC50 at CaV3.1 (Table 4), on CaV2.2 (Table 4) and against CaV3.2 (Table 4) were 1500 nM, 950 nM and 850 nM, respectively.
`O=C(NCc1ccc(S(=O)(=O)c2cccc(C(F)(F)F)c2)cc1)c1ccc(C(F)(F)F)nc1` [Compound 3, 6-(trifluoromethy)-N-(4-((3-(trifluoromethyl)phenyl)sulfonyl)benzyl)nicotinamide]: the IC50 came to 1340 nM against CaV3.1 (Table 4), 510 nM at CaV2.2 (Table 4) and 650 nM against CaV3.2 (Table 4).
The matching figures for `O=C(NCc1ccc(S(=O)(=O)c2cccc(C(F)(F)F)c2)cc1)c1ccc(C(F)(F)F)cn1` [Compound 4, 5-(trifluoromethy)-N-(4-((3-(trifluoromethyl)phenyl)sulfonyl)benzyl)picolinamide]: 1480 nM, 450 nM and 380 nM.
In the same order, the values of `CS(=O)(=O)c1cc(C(F)(F)F)cnc1C(=O)NCc1ccc(S(=O)(=O)c2cccc(C(F)(F)F)c2)cc1` [Compound 5, 3-(methylsulfonyl)-5-(trifluoromethyl)-N-(4-((3-(trifluoromethyl)phenyl)sulfonyl)benzyl)picolinamide] are 1350 nM, 470 nM and 2370 nM.
With `CS(=O)(=O)c1nc(C(F)(F)F)ccc1C(=O)NCc1ccc(S(=O)(=O)c2cccc(C(F)(F)F)c2)cc1` [Compound 6, 2-(methylsulfonyl)-6-(trifluoromethyl)-N-(4-((3-(trifluoromethyl)phenyl)sulfonyl)benzyl)nicotinamide], the IC50 at CaV3.1 (Table 4) is 2340 nM; on CaV2.2 (Table 4), 710 nM; on CaV3.2 (Table 4), 1510 nM.
With `Cn1nc(C(F)(F)F)cc1C(=O)NCc1ccc(S(=O)(=O)c2cccc(C(F)(F)F)c2)cc1` [Compound 7, 1-methyl-3-(trifluoromethyl)-N-(4-((3-(trifluoromethyl)phenyl)sulfonyl)benzyl)-1H-pyrazole-5-carboxamide], the values for the IC50 on CaV3.1 (Table 4), on CaV2.2 (Table 4) and at CaV3.2 (Table 4) were 1330 nM, 390 nM and 510 nM, respectively.
The matching figures for `O=C(NCc1ccc(S(=O)(=O)c2cccc(C(F)(F)F)c2)cc1)c1cnc(C(F)(F)F)nc1` [Compound 8, 2-(trifluoromethyl)-N-(4-((3-(trifluoromethyl)phenyl)sulfonyl)benzyl)pyrimidine-5-carboxamide]: 2140 nM, 510 nM and 920 nM.
The matching figures for `O=C(NCc1ccc(S(=O)(=O)c2cccc(C(F)(F)F)c2)cc1)c1ccnc(C(F)(F)F)n1` [Compound 9, 2-(trifluoromethyl)-N-(4-((3-(trifluoromethyl)phenyl)sulfonyl)benzyl)pyrimidine-4-carboxamide]: 2850 nM, 490 nM and 1690 nM.
In the case of `CS(=O)(=O)c1cc(C(=O)NCc2ccc(S(=O)(=O)c3cccc(C(F)(F)F)c3)cc2)cc(C(F)(F)F)n1` [Compound 10, 2-(methylsulfonyl)-6-(trifluoromethyl)-N-(4-((3-(trifluoromethyl)phenyl)sulfonyl)benzyl)isonicotinamide], the IC50 was found to be 1970 nM on CaV3.1 (Table 4), 690 nM at CaV2.2 (Table 4) and 980 nM against CaV3.2 (Table 4).
In the case of `CS(=O)(=O)c1cc(C(F)(F)F)ccc1C(=O)NCc1ccc(S(=O)(=O)c2cccc(C(F)(F)F)c2)cc1` [Compound 11, 2-(methylsulfonyl)-4-(trifluoromethyl)-N-(4-((3-(trifluoromethyl)phenyl)sulfonyl)benzyl)benzamide], the IC50 was found to be 1070 nM against CaV3.1 (Table 4), 410 nM at CaV2.2 (Table 4) and 590 nM against CaV3.2 (Table 4).
With `N[C@@H](C(=O)NCc1ccc(S(=O)(=O)c2cccc(C(F)(F)F)c2)cc1)c1ccccc1` [Compound 63, (R)-2-amino-2-phenyl-N-(4-((3-(trifluoromethyl)phenyl)sulfonyl)benzyl)acetamide], the IC50 against CaV3.1 (Table 4) stood at 580 nM; on CaV2.2 (Table 4) it was 440 nM.
On to `CC(C)(C(=O)Nc1ccc(Oc2ccc(C(F)(F)F)cn2)nc1)S(=O)(=O)c1cccc(C(F)(F)F)c1` [Compound 120, 2-methyl-2-((3-(trifluoromethyl)phenyl)sulfonyl)-N-(6-((5-(trifluoromethyl)pyridin-2-yl)oxy)pyridin-3-yl)propanamide], for which the results for the IC50 at CaV3.1 (Table 5) and on CaV2.2 (Table 5) were 5690 nM and 1020 nM, respectively.
For the compound `CC(C)(CNC(=O)c1ccc(C(F)(F)F)nc1)S(=O)(=O)c1cccc(C(F)(F)F)c1` [Compound 175, N-(2-methyl-2-((3-(trifluoromethyl)phenyl)sulfonyl)propyl)-6-(trifluoromethyl)nicotinamide], the values for the IC50 at CaV2.2 (Table 5) and on CaV3.2 (Table 5) were 3190 nM and 5320 nM, respectively.
In the same order, the values of `CC(C)(CNC(=O)c1cncc(C(F)(F)F)c1)S(=O)(=O)c1cccc(C(F)(F)F)c1` [Compound 176, N-(2-methyl-2-((3-(trifluoromethyl)phenyl)sulfonyl)propyl)-5-(trifluoromethyl)nicotinamide] are 1310 nM and 5340 nM.
In the same order, the values of `CC(C)(CCN1Cc2nc(C(F)(F)F)ccc2C1=O)S(=O)(=O)c1cccc(C(F)(F)F)c1` [Compound 188, 6-(3-methyl-3-((3-(trifluoromethyl)phenyl)sulfonyl)butyl)-2-(trifluoromethyl)-6,7-dihydro-5H-pyrolo[3,4-b]pyridine-5-one] are 420 nM and 5540 nM.
